This note sets out measurements from paper PMC6348446 (Journal of Medicinal Chemistry, 2018).

For the assay, the target named is T1, BRD7 (Homo sapiens, UniProt Q9NPI1).
T1 construct: Western blot analysis of BRD9 and BRD7 levels after treatment of HeLa cells; endogenous in cells; host or cells: HeLa
T1 sequence (Q9NPI1 1-651): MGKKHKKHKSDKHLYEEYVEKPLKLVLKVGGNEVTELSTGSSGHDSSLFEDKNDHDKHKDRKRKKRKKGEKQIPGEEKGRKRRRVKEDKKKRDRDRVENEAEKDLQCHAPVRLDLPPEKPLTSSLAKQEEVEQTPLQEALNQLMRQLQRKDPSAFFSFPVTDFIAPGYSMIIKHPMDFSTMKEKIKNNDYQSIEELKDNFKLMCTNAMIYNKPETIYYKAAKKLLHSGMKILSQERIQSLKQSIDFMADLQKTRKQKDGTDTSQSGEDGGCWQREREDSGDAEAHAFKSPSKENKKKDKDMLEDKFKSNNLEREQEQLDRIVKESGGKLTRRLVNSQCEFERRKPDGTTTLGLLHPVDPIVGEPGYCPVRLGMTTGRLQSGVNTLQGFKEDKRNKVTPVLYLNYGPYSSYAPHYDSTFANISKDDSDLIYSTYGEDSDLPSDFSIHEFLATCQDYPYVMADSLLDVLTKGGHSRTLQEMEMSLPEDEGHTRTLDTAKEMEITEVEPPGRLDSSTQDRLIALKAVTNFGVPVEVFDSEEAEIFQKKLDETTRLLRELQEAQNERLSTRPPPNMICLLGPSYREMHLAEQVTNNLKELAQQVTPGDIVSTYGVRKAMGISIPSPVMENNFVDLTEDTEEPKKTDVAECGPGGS
Nature of the assay: Western blot of BRD7 levels in RI-1 cells after compound treatment. The format is cell-based. The conditions noted are these: for BRD7 degradation: 4 h. As to the method:
HeLa and Hek293 cells were seeded at either 0.3 × 10^6 or 0.5 × 10^6 cells per well in 6-well plate in 2 mL of medium. At 80% confluency, cells were treated with compounds at the desired concentration, with final DMSO concentration of 0.1% v/v. Cells were incubated at 37 °C and 5% of CO2 for the desired time before harvesting. For protein extraction from adherent cells, cells were washed twice with DPBS (Gibco) and lysed with RIPA buffer (Sigma-Aldrich), supplemented with cOmplete Mini EDTA-free protease inhibitor cocktail (Roche). Insoluble material was removed by centrifugation at 14 000 rpm for 15 min at 4 °C. Supernatant was collected and protein concentration was quantified by Bradford assay (Thermo Scientific no. 23200, mean of two replicates). For RI-1 cells, (1–1.5) × 10^6 cells/mL were seeded in 6-well plate in 2 mL of medium. The day after, cells were treated with compounds at the desired concentration, with final DMSO concentration of 0.1% v/v. Before harvesting, cells were incubated at 37 °C and 5% CO2 for the desired time. Cells were washed twice with DPBS (Gibco) and lysed with RIPA buffer (Sigma-Aldrich), supplemented with cOmplete Mini EDTA-free protease inhibitor cocktail (Roche). Lysates were sonicated (10 s) and centrifuged at 14 000 rpm for 20 min at 4 °C. Supernatant was collected, and protein concentration was quantified by Bradford assay (mean of two replicates). For EOL-1 and A-204 cell line, 20 000 cells were seeded in 300 μL per well in a 24-well plate and incubated at 37 °C overnight. Compounds were added from DMSO stock solution using a digital dispenser D300 (Tecan), normalizing for added DMSO, and cells were incubated at 37 °C for 18 h. Medium was removed, and cells were washed with PBS and lysed in 80 μL of lysis buffer (1% Triton, 350 mM KCl, 10 mM Tris, pH 7,4, phosphatase-protease inhibitor cocktail (Thermo Scientific no. 1861281), 10 mM DTT, Benzonase 0.5 μL/ml (Novagen no. 70746 10KU, 25 U/μL)) for 30 min on ice before insoluble debris was pelleted by centrifugation.
Cells were seeded in 6-well plates with 5 × 10^5 cells per well in 2 mL of complete medium to aim for 80% confluence on the day of treatment. At time zero, ML4924 was added at final concentration of 3 μM with 0.1% v/v of DMSO. DMSO was added to the remaining wells in order to match concentration of vehicle in all wells. […]
Proteins were resolved by SDS–PAGE on NuPage 4–12% Bis-Tris Midi Gel (Invitrogen) and transferred to Amersham Protran 0.45 NC nitrocellulose membrane (GE Healthcare) using wet transfer. […] ImageJ software was used for band quantification, and the last was reported as relative amount as ratio of each protein band relative to the lane’s loading control. […]

Regarding `COc1cc(-c2cn(C)c(=O)c3cnccc23)cc(OC)c1CN1CCN(CCCCCOc2cc(-c3scnc3C)ccc2CNC(=O)[C@@H]2C[C@@H](O)CN2C(=O)[C@@H](NC(=O)C2(F)CC2)C(C)(C)C)CC1` [Compound 51, (2S,4R)-N-(2-((5-(4-(2,6-Dimethoxy-4-(2-methyl-1-oxo-1,2-dihydro-2,7-naphthyridin-4-yl)benzyl)piperazin-1-yl)pentyl)oxy)-4-(4-methylthiazol-5-yl)benzyl)-1-((S)-2-(1-fluorocyclopropane-1-carboxamido)-3,3-dimethylbutanoyl)-4-hydroxypyrrolidine-2-carboxamide], under “100 nM, 30 min”, the “decrease of BRD7 level” value is reported as “more than 50%”. Under “100 nM”, the BRD7 degradation result is on record as “more than 90%”. Moreover, for the setting “2 and 8 h”, the “concentration window of maximal protein degradation of BRD7” value fell in the range of 0.1 to 1 µM.

For the compound `COc1cc(-c2cn(C)c(=O)c3cnccc23)cc(OC)c1CN1CCN(CCCCCOc2cc(-c3scnc3C)ccc2CNC(=O)[C@@H]2C[C@H](O)CN2C(=O)[C@@H](NC(=O)C2(F)CC2)C(C)(C)C)CC1` [cisVZ185], the BRD7 degradation result (100 nM) is recorded as “no degradation”.
